# ChEMBL document CHEMBL5226379, “Hypouricemic Actions of the Pericarp of Mangosteen in Vitro and in Vivo” (J Nat Prod, 2023)
# The source made the active and inactive calls. The calls are words filed in the database; no cut-off is given here.
# Key:
# Homo sapiens = species on record: Homo sapiens; assay: Inhibition of uricase (unknown origin) using uric acid as substrate at 75 mg/L preincubated with compounds for 15 mins followed by uric acid addition
# Rattus norvegicus [1] = assay: (§1) Anti-hyperuricemic activity against potassium oxonate-induced hyperuricemic Sprague-Dawley rat model assessed as urinary urate level at 1 mg/kg, po pre-administered via gavage twice daily for 5 times followed by potassium oxonate injection for 1 hrs prior to last dose and measured after 3 hrs; format: functional; conditions: time 123 hrs
# Rattus norvegicus [2] = assay: Anti-hyperuricemic activity against potassium oxonate-induced hyperuricemic Sprague-Dawley rat model assessed as serum urate level at 1 mg/kg, po pre-administered via gavage twice daily for 5 times followed by potassium oxonate injection for 1 hrs prior to last dose and measured after 3 hrs; format: functional; conditions: time 123 hrs
# Rattus norvegicus [3] = assay: Anti-hyperuricemic activity against potassium oxonate-induced hyperuricemic Sprague-Dawley rat model assessed as serum creatinine level at 1 mg/kg, po pre-administered via gavage twice daily for 5 times followed by potassium oxonate injection for 1 hrs prior to last dose and measured after 3 hrs; format: functional; conditions: time 123 hrs
# Rattus norvegicus [4] = assay: Anti-hyperuricemic activity against potassium oxonate-induced hyperuricemic Sprague-Dawley rat model assessed as serum urea nitrogen level at 1 mg/kg, po pre-administered via gavage twice daily for 5 times followed by potassium oxonate injection for 1 hrs prior to last dose and measured after 3 hrs; format: functional; conditions: time 123 hrs
# Rattus norvegicus [5] = assay: as §1, with “clearance of” for “urinary”, “measured per body surface area of 0.0311 m2” for “level”; format: functional; conditions: time 123 hrs
# Rattus norvegicus [6] = assay: (§2) Anti-hyperuricemic activity against potassium oxonate-induced hyperuricemic Sprague-Dawley rat model assessed as fractional excretion of urate at 1 mg/kg, po pre-administered via gavage twice daily for 5 times followed by potassium oxonate injection for 1 hrs prior to last dose and measured after 3 hrs relative to control; format: functional; conditions: time 123 hrs
# Rattus norvegicus [7] = assay: Anti-hyperuricemic activity against potassium oxonate-induced hyperuricemic Sprague-Dawley rat model assessed as urinary urate at 1 mg/kg, po pre-administered via gavage twice daily for 5 times followed by potassium oxonate injection for 1 hrs prior to last dose and measured after 3 hrs; format: functional; conditions: time 123 hrs
# Rattus norvegicus [8] = assay: as §2, with “as” for “as fractional”, “urate per volume of glomerular filtration measured per body surface area of 0.0311 m2” for “urate”, “hrs” for “hrs relative to control”; format: functional; conditions: time 123 hrs
# Rattus norvegicus [9] = assay: Anti-hyperuricemic activity against potassium oxonate-induced hyperuricemic Sprague-Dawley rat model assessed as serum urate level at 2 mg/kg, po pre-administered via gavage twice daily for 5 times followed by potassium oxonate injection for 1 hrs prior to last dose and measured after 3 hrs; format: functional; conditions: time 123 hrs
# Rattus norvegicus [10] = assay: (§3) Anti-hyperuricemic activity against potassium oxonate-induced hyperuricemic Sprague-Dawley rat model assessed as serum creatinine level at 2 mg/kg, po pre-administered via gavage twice daily for 5 times followed by potassium oxonate injection for 1 hrs prior to last dose and measured after 3 hrs; format: functional; conditions: time 123 hrs
# Rattus norvegicus [11] = assay: Anti-hyperuricemic activity against potassium oxonate-induced hyperuricemic Sprague-Dawley rat model assessed as urinary creatinine level at 2 mg/kg, po pre-administered via gavage twice daily for 5 times followed by potassium oxonate injection for 1 hrs prior to last dose and measured after 3 hrs; format: functional; conditions: time 123 hrs
# Rattus norvegicus [12] = assay: Anti-hyperuricemic activity against potassium oxonate-induced hyperuricemic Sprague-Dawley rat model assessed as serum urea nitrogen level at 2 mg/kg, po pre-administered via gavage twice daily for 5 times followed by potassium oxonate injection for 1 hrs prior to last dose and measured after 3 hrs; format: functional; conditions: time 123 hrs
# Rattus norvegicus [13] = assay: (§4) Anti-hyperuricemic activity against potassium oxonate-induced hyperuricemic Sprague-Dawley rat model assessed as urine volume at 2 mg/kg, po pre-administered via gavage twice daily for 5 times followed by potassium oxonate injection for 1 hrs prior to last dose and measured after 3 hrs; format: functional; conditions: time 123 hrs
# Rattus norvegicus [14] = assay: as §3, with “clearance of” for “serum”, “measured per body surface area of 0.0311 m2” for “level”; format: functional; conditions: time 123 hrs
# Rattus norvegicus [15] = assay: as §2, with “at 2” for “at 1”; format: functional; conditions: time 123 hrs
# Rattus norvegicus [16] = assay: as §4, with “excretion of urate per” for “urine”, “volume of glomerular filtration measured per body surface area of 0.0311 m2” for “volume”; format: functional; conditions: time 123 hrs
# Rattus norvegicus [17] = assay: (§5) Anti-hyperuricemic activity against potassium oxonate-induced hyperuricemic Sprague-Dawley rat model assessed as ratio of urinary urate to urinary creatinine at 2 mg/kg, po pre-administered via gavage twice daily for 5 times followed by potassium oxonate injection for 1 hrs prior to last dose and measured after 3 hrs; format: functional; conditions: time 123 hrs
# Rattus norvegicus [18] = assay: (§6) Anti-hyperuricemic activity against potassium oxonate-induced hyperuricemic Sprague-Dawley rat model assessed as serum urate level at 4 mg/kg, po pre-administered via gavage twice daily for 5 times followed by potassium oxonate injection for 1 hrs prior to last dose and measured after 3 hrs; format: functional; conditions: time 123 hrs
# Rattus norvegicus [19] = assay: (§7) Anti-hyperuricemic activity against potassium oxonate-induced hyperuricemic Sprague-Dawley rat model assessed as urinary creatinine level at 4 mg/kg, po pre-administered via gavage twice daily for 5 times followed by potassium oxonate injection for 1 hrs prior to last dose and measured after 3 hrs; format: functional; conditions: time 123 hrs
# Rattus norvegicus [20] = assay: Anti-hyperuricemic activity against potassium oxonate-induced hyperuricemic Sprague-Dawley rat model assessed as urine volume at 4 mg/kg, po pre-administered via gavage twice daily for 5 times followed by potassium oxonate injection for 1 hrs prior to last dose and measured after 3 hrs; format: functional; conditions: time 123 hrs
# Rattus norvegicus [21] = assay: as §7, with “clearance of” for “urinary”, “measured per body surface area of 0.0311 m2” for “level”; format: functional; conditions: time 123 hrs
# Rattus norvegicus [22] = assay: as §2, with “at 4” for “at 1”; format: functional; conditions: time 123 hrs
# Rattus norvegicus [23] = assay: as §6, with “glomerular load of” for “serum”, “measured per body surface area of 0.0311 m2” for “level”; format: functional; conditions: time 123 hrs
# Rattus norvegicus [24] = assay: Anti-hyperuricemic activity against potassium oxonate-induced hyperuricemic Sprague-Dawley rat model assessed as urinary urate at 4 mg/kg, po pre-administered via gavage twice daily for 5 times followed by potassium oxonate injection for 1 hrs prior to last dose and measured after 3 hrs; format: functional; conditions: time 123 hrs
# Rattus norvegicus [25] = assay: as §5, with “4” for “2”; format: functional; conditions: time 123 hrs
# Mus musculus [26] = assay: Hypouricemic activity in potassium oxonate-induced hyperuricemic Kunming mouse model assessed as decrease in serum uric acid level pre-administered intragastrically via gavage twice daily for 5 times followed by potassium oxonate injection for 1 hrs prior to last dose by phosphotungstic acid method; format: functional, organism-based; conditions: dose 1-4 mg/kg, time 5.0 day
# [27] = Toxicity in Kunming mouse assessed as decrease in serum uric acid level upto 250 mg/kg; format: organism-based; conditions: in vivo
# Mus musculus [28] = assay: Hypouricemic activity in potassium oxonate-induced hyperuricemic Kunming mouse model assessed as decrease in serum XOD level at 1 to 4 mg/kg, IG pre-administered via gavage twice daily for 5 times followed by potassium oxonate injection for 1 hrs prior to last dose; format: functional, organism-based; conditions: dose 1-4 mg/kg, time 5.0 day
# Rattus norvegicus [29] = assay: as §1, with “assessed as increase in urinary urate” for “assessed as urinary urate”, “level at 4 mg/kg, po” for “level at 1 mg/kg, po”, “3 hrs relative to control” for “3 hrs”; format: functional; conditions: time 123 hrs
# Mus musculus [30] = assay: Anti-hyperuricemic activity against uric acid-induced hyperuricemic Kunming mouse model assessed as decrease in GLUT9 protein level in kidney at 2 to 8 mg/kg, pre-administered with uric acid for 3.5 days followed by compound administration via gavage twice a day for seven times by ELISA analysis; format: functional, organism-based; conditions: dose 2-8 mg/kg, time 7.0 day
# Mus musculus [31] = assay: Anti-hyperuricemic activity against uric acid-induced hyperuricemic Kunming mouse model assessed as decrease in URAT1 protein level in kidney at 2 to 8 mg/kg, pre-administered with uric acid for 3.5 days followed by compound administration via gavage twice a day for seven times by ELISA analysis; format: functional, organism-based; conditions: dose 2-8 mg/kg, time 7.0 day
compound,measurement,setting,value
COc1c(O)cc2oc3cc(O)c(CC=C(C)C)c(O)c3c(=O)c2c1CC=C(C)C [MANGOSTIN],inhibition,Homo sapiens,2.6%
same,Activity,Rattus norvegicus [1],2.4 mmol/L
same,Activity,Rattus norvegicus [2],220 µmol/L
same,Activity,Rattus norvegicus [3],54.4 µmol/L
same,Activity,Rattus norvegicus [4],10.7 mmol/L
same,Activity,Rattus norvegicus [5],13.6 mL/min
same,Activity,Rattus norvegicus [6],71%
same,Activity,Rattus norvegicus [7],501 µmol
same,Activity,Rattus norvegicus [8],4.9 µmol/L
same,Activity,Rattus norvegicus [9],236 µmol/L
same,Activity,Rattus norvegicus [10],55.2 µmol/L
same,Activity,Rattus norvegicus [11],0.8 mmol/L
same,Activity,Rattus norvegicus [12],10.9 mmol/L
same,Activity,Rattus norvegicus [13],5.6 mL
same,Activity,Rattus norvegicus [14],15.4 mL/min
same,Activity,Rattus norvegicus [15],77%
same,Activity,Rattus norvegicus [16],5.8 µmol/L
same,Ratio,Rattus norvegicus [17],3.2
same,Activity,Rattus norvegicus [18],202 µmol/L
same,Activity,Rattus norvegicus [19],0.9 mmol/L
same,Activity,Rattus norvegicus [20],6.2 mL
same,Activity,Rattus norvegicus [21],18.6 mL/min
same,Activity,Rattus norvegicus [22],85%
same,Activity,Rattus norvegicus [23],3.7 µmol/min
same,Activity,Rattus norvegicus [24],476 µmol
same,Ratio,Rattus norvegicus [25],2.9
same,Activity,Mus musculus [26],Dose-Dependent Effect
same,Activity,[27],Non-Toxic
same,Activity,Mus musculus [28],inactive
same,Activity,Rattus norvegicus [29],46%
same,Activity,Mus musculus [30],Active
same,Activity,Mus musculus [31],inactive
